For the first experiment, the target named is T1, PD-1/PD-L1 (Homo sapiens, UniProt Q9NZQ7).
T1 construct: Recombinant human PD-L1 protein (19-238) with a His-tag at the C-terminus; purchased AcroBiosystems PD1-H5229 (PD-L1); PD1-H5257 (PD-1)
T1 sequence (Q9NZQ7 19-238): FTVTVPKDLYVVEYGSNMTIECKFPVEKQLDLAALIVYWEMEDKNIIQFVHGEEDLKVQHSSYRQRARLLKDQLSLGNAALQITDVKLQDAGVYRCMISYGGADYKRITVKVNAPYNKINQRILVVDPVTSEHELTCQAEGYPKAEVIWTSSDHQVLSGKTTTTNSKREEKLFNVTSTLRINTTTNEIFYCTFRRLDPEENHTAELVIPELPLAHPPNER
The experiment in a line: PD-1/PD-L1 homogenous time-resolved fluorescence (HTRF) binding assay. Particulars: recombinant human PD-L1 (19-238) His-tag / human PD-1 (25-167) Fc tag, class symbols. Here is the method:
Resolved Fluorescence (HTRF) Binding Assay
The assays were conducted in a standard black 384-well polystyrene plate with a final volume of 20 μL. Inhibitors were first serially diluted in DMSO and then added to the plate wells before the addition of other reaction components. The final concentration of DMSO in the assay was 1%. The assays were carried out at 25° C. in the PBS buffer (pH 7.4) with 0.05% Tween-20 and 0.1% BSA. Recombinant human PD-L1 protein (19-238) with a His-tag at the C-terminus was purchased from AcroBiosy stems (PD1-H5229). Recombinant human PD-1 protein (25-167) with Fc tag at the C-terminus was also purchased from AcroBiosystems (PD1-H5257). PD-L1 and PD-1 proteins were diluted in the assay buffer and 10 μL was added to the plate well. Plates were centrifuged and proteins were preincubated with inhibitors for 40 min. The incubation was followed by the addition of […] of HTRF detection buffer supplemented with Europium cryptate-labeled anti-human IgG (PerkinElmer-AD0212) specific for Fc and anti-His antibody conjugated to SureLight®-Allophycocyanin (APC, PerkinElmer-AD0059H). After centrifugation, the plate was incubated at 25° C. for 60 min. Before reading on a PHERAstar FS plate reader (665 nm/620 nm ratio). Final concentrations in the assay were […] PD1, 10 nM PD-L1, 1 nM europium anti-human IgG and 20 nM anti-His-Allophycocyanin. IC50 determination was performed by fitting the curve of percent control activity versus the log of the inhibitor concentration using the GraphPad Prism 5.0 software.
Data obtained for the Example compounds using the PD-1/PD-L1 homogenous time-resolved fluorescence (HTRF) binding assay described in Example A is provided in Table 4.
For orientation: In TR-FRET formats the signal depends on donor and acceptor labels being close together.
What is called IC50 is the concentration needed to halve the response being measured. `Cc1c(NC(=O)c2nnc(CN)o2)cccc1-c1cccc(NC(=O)c2nnc(CN)o2)c1C` [Example 18, N,N′-(2,2′-dimethyl-[1,1′-biphenyl]-3,3′-diyl)bis(5-(aminomethyl)-1,3,4-oxadiazole-2-carboxamide)]: the IC50 lay within 25 to 100 nM.

`Cc1c(NC(=O)c2nnc(C(C)N)o2)cccc1-c1cccc(NC(=O)c2nnc(C(C)N)o2)c1C` (centres unmarked) [Example 19, N,N′-(2,2′-dimethyl-[1,1′-biphenyl]-3,3′-diyl)bis(5-(1-aminoethyl)-1,3,4-oxadiazole-2-carboxamide)]: the IC50 is 25 to 100 nM.

Consider `Cc1c(NC(=O)c2nnc(CN)s2)cccc1-c1cccc(NC(=O)c2nnc(CN)s2)c1C` [Example 20, N,N′-(2,2′-dimethyl-[1,1′-biphenyl]-3,3′-diyl)bis(5-(aminomethyl)-1,3,4-thiadiazole-2-carboxamide)], for which the IC50 is under 25 nM.

On to `Cc1c(-c2cccc(N(C)C(=O)c3nc4ccc(N)cc4s3)c2C)cccc1N(C)C(=O)c1nc2c(s1)CNCC2` [Example 21, N-(3′-(6-amino-N-methylbenzo[d]thiazole-2-carboxamido)-2,2′-dimethyl-[1,1′-biphenyl]-3-yl)-N-methyl-4,5,6,7-tetrahydrothiazolo[5,4-c]pyridine-2-carboxamide], for which the IC50 fell in the range of 100 to 200 nM.

`Cc1c(-c2cccc(N(C)Cc3nc4ccc(N)cc4s3)c2C)cccc1N(C)Cc1nc2c(s1)CNCC2` [Example 22, N3-((6-aminobenzo[d]thiazol-2-yl)methyl)-N3,N3′,2,2′-tetramethyl-N3′-((4,5,6,7-tetrahydrothiazolo[5,4-c]pyridin-2-yl)methyl)-[1,1′-biphenyl]-3,3′-diamine]: the IC50 is over 200 nM.

For `Cc1c(-c2cccc(N(C)C(=O)c3nc4c(s3)CNCC4)c2C)cccc1N(C)C(=O)c1nc2c(s1)CNCC2` [Example 23, N,N′-(2,2′-dimethyl-[1,1′-biphenyl]-3,3′-diyl)bis(N-methyl-4,5,6,7-tetrahydrothiazolo[5,4-c]pyridine-2-carboxamide)], the IC50 lay in the range of 100 to 200 nM.

`Cc1c(-c2cccc(N(C)Cc3nc4c(s3)CNCC4)c2C)cccc1N(C)Cc1nc2c(s1)CNCC2` [Example 24, N3,N3′,2,2′-tetramethyl-N3,N3′-bis((4,5,6,7-tetrahydrothiazolo[5,4-c]pyridin-2-yl)methyl)-[1,1′-biphenyl]-3,3′-diamine]: the IC50 is 100 to 200 nM.

For `Cc1c(NCc2nc3c(s2)CNCC3)cccc1-c1cccc(NCc2nc3c(s2)CNCC3)c1C` [Example 25, 2,2′-dimethyl-N3,N3′-bis((4,5,6,7-tetrahydrothiazolo[5,4-c]pyridin-2-yl)methyl)-[1,1′-biphenyl]-3,3′-diamine], the IC50 is 25 to 100 nM.

On to `Cc1c(NCc2nnc(C3(N)CCC3)s2)cccc1-c1cccc(NCc2nnc(C3(N)CCC3)s2)c1C` [Example 26, N3,N3′-bis((5-(1-aminocyclobutyl)-1,3,4-thiadiazol-2-yl)methyl)-2,2′-dimethyl-[1,1′-biphenyl]-3,3′-diamine], for which the IC50 fell in the range of 25 to 100 nM.

Regarding `Cc1nc(C(=O)Nc2cccc(-c3cccc(NC(=O)c4nc(C)c(CN5CCCC5)s4)c3C)c2C)sc1CN1CCCC1` [Example 28, N,N′-(2,2′-dimethyl-[1,1′-biphenyl]-3,3′-diyl)bis(4-methyl-5-(pyrrolidin-1-ylmethyl)thiazole-2-carboxamide)], the IC50 was under 25 nM.

In the case of `Cc1c(NC(=O)c2ncc(CN3CCCC3)s2)cccc1-c1cccc(NC(=O)c2ncc(CN3CCCC3)s2)c1C` [Example 29, N,N′-(2,2′-dimethyl-[1,1′-biphenyl]-3,3′-diyl)bis(5-(pyrrolidin-1-ylmethyl)thiazole-2-carboxamide)], the IC50 was under 25 nM.

On to `Cc1c(NC(=O)c2nc3c(s2)CNCCC3)cccc1-c1cccc(NC(=O)c2nc3c(s2)CNCCC3)c1C` [Example 30, N,N′-(2,2′-dimethyl-[1,1′-biphenyl]-3,3′-diyl)bis(5,6,7,8-tetrahydro-4H-thiazolo[5,4-c]azepine-2-carboxamide)], for which the IC50 is under 25 nM.

As to `Cc1c(NC(=O)c2nnc([C@H](C)N)s2)cccc1-c1cccc(NC(=O)c2nnc([C@H](C)N)s2)c1C` [Example 31, N,N′-(2,2′-dimethyl-[1,1′-biphenyl]-3,3′-diyl)bis(5-((S)-1-aminoethyl)-1,3,4-thiadiazole-2-carboxamide)], the IC50 was under 25 nM.

For `Cc1c(-c2cccc(N(C)C(=O)c3cc4c(s3)CCNC4)c2C)cccc1N(C)C(=O)c1cn2c(n1)CNCC2` [Example 34, N-(2,2′-dimethyl-3′-(N-methyl-5,6,7,8-tetrahydroimidazo[1,2-a]pyrazine-2-carboxamido)-[1,1′-biphenyl]-3-yl)-N-methyl-4,5,6,7-tetrahydrothieno[3,2-c]pyridine-2-carboxamide], the IC50 is under 25 nM.

Take `Cc1c(NC(=O)c2cn3c(n2)CNCC3)cccc1-c1cccc(NC(=O)c2cc3c(s2)CCNC3)c1C` [Example 35, N-(2,2′-dimethyl-3′-(5,6,7,8-tetrahydroimidazo[1,2-a]pyrazine-2-carboxamido)-[1,1′-biphenyl]-3-yl)-4,5,6,7-tetrahydrothieno[3,2-c]pyridine-2-carboxamide]: the IC50 is under 25 nM.

For `Cc1c(NC(=O)c2cn3c(n2)CN(C(C)CO)CC3)cccc1-c1cccc(NC(=O)c2cn3c(n2)CN(C(C)CO)CC3)c1C` (centres unmarked) [Example 36, N,N′-(2,2′-dimethyl-[1,1′-biphenyl]-3,3′-diyl)bis(7-(1-hydroxypropan-2-yl)-5,6,7,8-tetrahydroimidazo[1,2-a]pyrazine-2-carboxamide)], the IC50 is under 25 nM.

Take `Cc1c(NC(=O)c2nnc(CNC(=N)N)s2)cccc1-c1cccc(NC(=O)c2nnc(CNC(=N)N)s2)c1C` [Example 37, N,N′-(2,2′-dimethyl-[1,1′-biphenyl]-3,3′-diyl)bis(5-(guanidinomethyl)-1,3,4-thiadiazole-2-carboxamide)]: the IC50 was under 25 nM.

Turning to `Cc1c(NC(=O)c2nnc(C3(NC(=N)N)CCC3)s2)cccc1-c1cccc(NC(=O)c2nnc(C3(NC(=N)N)CCC3)s2)c1C` [Example 38, N,N′-(2,2′-dimethyl-[1,1′-biphenyl]-3,3′-diyl)bis(5-(1-guanidinocyclobutyl)-1,3,4-thiadiazole-2-carboxamide)], the IC50 was under 25 nM.

For the compound `Cc1c(NC(=O)c2nnc3n2CCNC3)cccc1-c1cccc(NC(=O)c2nnc3n2CCNC3)c1C` [Example 39, N,N′-(2,2′-dimethyl-[1,1′-biphenyl]-3,3′-diyl)bis(5,6,7,8-tetrahydro-[1,2,4]triazolo[4,3-a]pyrazine-3-carboxamide)], the IC50 is under 25 nM.

For the compound `N#Cc1c(NC(=O)c2cn3c(n2)CNCC3)cccc1-c1cccc(NC(=O)c2cn3c(n2)CNCC3)c1C#N` [Example 40, N,N′-(2,2′-dicyano-[1,1′-biphenyl]-3,3′-diyl)bis(5,6,7,8-tetrahydroimidazo[1,2-a]pyrazine-2-carboxamide)], the IC50 was under 25 nM.

Consider `Cc1c(NC(=O)c2nnc(C3CCCN3)o2)cccc1-c1cccc(NC(=O)c2nnc(C3CCCN3)o2)c1C` (centres unmarked) [Example 41, N,N′-(2,2′-dimethyl-[1,1′-biphenyl]-3,3′-diyl)bis(5-(pyrrolidin-2-yl)-1,3,4-oxadiazole-2-carboxamide)], for which the IC50 is under 25 nM.

Turning to `Cc1c(NC(=O)c2cn3c(n2)CNCC3)cccc1-c1cccc(NC(=O)c2cc3c(s2)CNCC3)c1C` [Example 42, N-(2,2′-dimethyl-3′-(5,6,7,8-tetrahydroimidazo[1,2-a]pyrazine-2-carboxamido)-[1,1′-biphenyl]-3-yl)-4,5,6,7-tetrahydrothieno[2,3-c]pyridine-2-carboxamide], the IC50 was under 25 nM.

Staying with this experiment, now noted: recombinant human PD-L1 (19-238) His-tag / human PD-1 (25-167) Fc tag, numeric values.
Regarding `Cc1c(NC(=O)c2nnc(C3(N)CCC3)s2)cccc1-c1cccc(NC(=O)c2nnc(C3(N)CCC3)s2)c1C` [Example 27, N,N′-(2,2′-dimethyl-[1,1′-biphenyl]-3,3′-diyl)bis(5-(1-aminocyclobutyl)-1,3,4-thiadiazole-2-carboxamide)], the IC50 is 3.13 nM.

Take `Cc1c(NC(=O)c2cc3c(s2)CNCC3)cccc1-c1cccc(NC(=O)c2cc3c(s2)CNCC3)c1C` [Example 32, N,N′-(2,2′-dimethyl-[1,1′-biphenyl]-3,3′-diyl)bis(4,5,6,7-tetrahydrothieno[2,3-c]pyridine-2-carboxamide)]: the IC50 was found to be 18.1 nM.

As for `O=C(c1nc2c(s1)CNCC2)N1CCc2c(-c3cccc4c3CCN4C(=O)c3nc4c(s3)CNCC4)cccc21` [Example 33, [4,4′-biindoline]-1,1′-diylbis((4,5,6,7-tetrahydrothiazolo[5,4-c]pyridin-2-yl)methanone)], the IC50 was determined as 0.21 nM.

Take `CN1CCc2nc(C(=O)Nc3cccc(-c4cccc(NC(=O)c5nc6c(s5)CN(C)CC6)c4Cl)c3Cl)sc2C1` [Example 44, N,N′-(2,2′-dichloro-[1,1′-biphenyl]-3,3′-diyl)bis(5-methyl-4,5,6,7-tetrahydrothiazolo[5,4-c]pyridine-2-carboxamide)]: the IC50 was 0.62 nM.
